Data reported in US10398672B2, “Methods and compositions for targeting cancer stem cells” (Whitehead Institute for Biomedical Research, priority 2014, dated 2019).
Where two headings read alike, the source gives them in different places.

Tests used:
NAMEC cells [1] = test: Treatment of NAMEC cells with cAMP analogs (PKA versus EPAC), morphology; assay type: cell-based, human; settings: treatment for 12 days, data not shown
NAMEC cells [2] = assay type: cell-based, human; settings: for susceptibility to inhibition by the drug, in contrast to untreated NAMEC cells: NAMEC cells treated with cholera toxin, FIGS. 8A and 8B
HMLE cells = test: Dose response to chemotherapeutic drugs, HMLE cells; assay type: cell-based, human; settings: dose response curves FIGS. 8A and 8B
NAMEC cells [3] = assay type: cell-based, human
E-cadherin/CDH1 promoter = assay type: cell-based, human
[4] = 5 mg/kg, previously tested in vivo in mice; cited from earlier work
NAMEC cells [5] = assay type: cell-based, human; remark: listed apart in the source
NAMEC cells [6] = assay type: cell-based, human; remark: listed apart in the source
NAMEC cells [7] = assay type: cell-based, human; remark: listed apart in the source
NAMEC cells [8] = assay type: cell-based, human; remark: listed apart in the source

Nc1ncnc2c1nc(Br)n2[C@@H]1O[C@@H]2COP(=O)(O)O[C@H]2[C@H]1O [8-Br-cAMP]
epithelial morphologies displayed by NAMEC cells (NAMEC cells [1]): displayed epithelial morphologies

COc1cccc2c1C(=O)c1c(O)c3c(c(O)c1C2=O)C[C@@](O)(C(=O)CO)C[C@@H]3O[C@H]1C[C@H](N)[C@H](O)[C@H](C)O1 [doxorubicin]
susceptibility to inhibition by the drug (NAMEC cells [2]): highly resistant
susceptibility to inhibition by the drug, in contrast to untreated NAMEC cells (NAMEC cells [2]): more susceptible
susceptibility to inhibition by the drug (HMLE cells): susceptible

C=C[C@@]1(C)CC(=O)[C@]2(O)[C@@]3(C)[C@@H](O)CCC(C)(C)[C@@H]3[C@H](O)[C@H](OC(C)=O)[C@@]2(C)O1 [forskolin]
cells expressing the SC-like CD44hiCD24lo marker profile reverted to the non-SC CD44loCD24hi profile (NAMEC cells [3]; NAMEC cells, 100 μg/ml cholera toxin or 10 μM forskolin over 12 days, flow cytometry): 95%
induce transcription of the E-cadherin reporter compared to the control after normalization to cell number (E-cadherin/CDH1 promoter): 40 fold
relative CDH1 Promoter luciferase activity normalized by cells number: differential activity between non-CSCs and CSC (E-cadherin/CDH1 promoter): around 40 fold
toxicities / side-effects in mice [4]: no reported side-effects

CC(=O)O[C@H]1C(=O)[C@@]2(C)[C@H]([C@H](OC(=O)c3ccccc3)[C@]3(O)C[C@H](OC(=O)[C@H](O)[C@@H](NC(=O)c4ccccc4)c4ccccc4)C(C)=C1C3(C)C)[C@]1(OC(C)=O)CO[C@@H]1C[C@@H]2O [paclitaxel]
susceptibility to inhibition by the drug (NAMEC cells [2]): highly resistant
susceptibility to inhibition by the drug, in contrast to untreated NAMEC cells (NAMEC cells [2]): more susceptible
susceptibility to inhibition by the drug (HMLE cells): susceptible

cholera toxin
susceptibility of NAMEC cells to doxorubicin and paclitaxel after induction of MET (NAMEC cells [2]): more susceptible
E-cadherin expression compared to untreated NAMEC cells (NAMEC cells [5]): gain of E-cadherin expression
relative expression of mesenchymal markers compared to untreated NAMEC cells (NAMEC cells [5]): decrease
cell morphology after treatment (NAMEC cells [3]): cobblestone-like epithelial morphology
cells expressing the SC-like CD44hiCD24lo marker profile reverted to the non-SC CD44loCD24hi profile (NAMEC cells [3]): 95%
junctional E-cadherin by fluorescent microscopy (NAMEC cells [3]): expressed junctional E-cadherin
mesenchymal marker fibronectin by fluorescence microscopy (NAMEC cells [3]): loss of the mesenchymal marker, fibronectin
mammosphere-forming ability (NAMEC cells [6]): complete loss
ability to induce luciferase expression (validation of the screen) (E-cadherin/CDH1 promoter): induce luciferase expression
intracellular cAMP concentration in NAMEC cells (NAMEC cells [7]): elevated
invasive properties of NAMEC cells (NAMEC cells [8]): loss
migratory properties of NAMEC cells (NAMEC cells [8]): loss
